Active and inactive are the calls of the source. The rule behind the calls is not given here.
Legend:
Blepharisma japonicum [1] = experiment: Inhibition of blepharismone-induced monotypic pairing of Blepharisma japonicum R1072; assay type: functional
Blepharisma japonicum [2] = experiment: Inhibition of blepharismone-induced monotypic pairing of Blepharisma japonicum R1072 upto 1 mM; assay type: functional

Compound	Activity (Blepharisma japonicum [1])	Inhibitory concentration (Blepharisma japonicum [2]) [µM]
CC(=O)c1ccccc1NC(=O)Cc1ccc(-c2ccccc2)cc1	inactive	>1000
O=C(Cc1ccc(-c2ccccc2)cc1)Nc1ccc(O)cc1C(=O)C[C@H](O)C(=O)O	–	4.8
CC(=O)c1ccccc1NC(=O)CCCc1ccc2ccc3cccc4ccc1c2c34	inactive	>1000
O=C(CCCc1ccc2ccc3cccc4ccc1c2c34)Nc1ccc(O)cc1C(=O)C[C@H](O)C(=O)O	–	4

Source: ChEMBL document CHEMBL1146353, “Synthesis of fluorescent molecular probes specific for the receptor of blepharismone, a mating-inducing pheromone of the ciliate Blepharisma japonicum” (2007)
